Reference: PMC10743883, “Identification and Functional Analysis of an Epsilon Class Glutathione S-Transferase Gene Associated with α-Pinene Adaptation in Monochamus alternatus” (International Journal of Molecular Sciences, 2023)

Test system: MaGSTe3
Test: GSH conjugation, absorbance at […] nm, Michaelis-Menten fit
Format: biochemical, Monochamus alternatus
Conditions: co-substrate GSH (concentration not given); 100 mM PBS; CDNB varied, printed range 0–400 mM

`O=[N+]([O-])c1ccc(Cl)c([N+](=O)[O-])c1` [1-chloro-2,4-dinitrobenzene] showed a Km of 1240 ± 210 µM.
